Measured values from patent publication US6710074B2, “Compound having antimalarial activity” (Japan Science and Technology Corporation, priority 2000, dated 2004).
Where two headings read alike, the source gives them in different places.

Legend:
[1] = system: mouse FM3A cells; experiment: Growth inhibition test of mouse FM3A cells; assay type: cell-based; details: for IC50: read-out: 50% growth inhibitory concentration IC50
Method: An F28-7 strain, a wild-type strain of mouse breast cancer-derived FM3A cells was used. Immobilized fetal bovine serum was added to an ES medium such that the serum made up 2% of the medium, and culture was conducted in CO2 at a concentration of 5%, and at 37° C. Doubling time of the F28-7 strain of FM3A cells under this condition was about 12 hours. Cells which had been precultured and entered to logarithmic growth phase were diluted to be 5×10^4 cells/ml in the medium. The same sample solution as in the above-mentioned Example 2-2 was used. 5 to 10 μl of the sample solution was added to each well of a 24-well plate (when medium and the like were added, the final concentration became 1×10^−4˜1×10^−5 M). The sample solution was duplicated or triplicated, and wells added with 10 μl of sterilized water, DMF or DMSO were prepared at the same time as controls. Next, a prepared suspension of cultured cells was added by 990 to 995 μl each, and uniformly suspended in media by pipetting gently. After cultured for 48 hours, the number of cells in each well was counted by a cell counter (CC-108; Toa. Medical Electrics), and growth rate was calculated by a formula mentioned below and 50% growth inhibitory rate (IC50) was calculated. The cell proliferation inhibiting activity was calculated according to the number of cells in wells supplemented with the sample solution and in controls. […] on this, cell toxicity of the sample was evaluated. [formula]
A: the number of cells at the beginning
B: the number of cells in a control after 2 days
C: the number of cells 2 days after supplementation of a sample

[2] = system: P. falciparum; experiment: Growth inhibition test of P. falciparum; assay type: cell-based, Plasmodium falciparum; details: for Chemotherapeutic coefficient IC50/EC50: IC50 of mouse FM3A cells / EC50 of P. falciparum, index of selective toxicity; for EC50: Plasmodium falciparum
Method: P. Falciparum FCR-3 strain (ATCC30932) and P. Falciparum Honduras-i strain (ATCC30935), both of which are Plasmodium falciparum, were used as test malaria parasites for measuring antimalarial activity. A filter-sterilized RPMI1640 medium was adjusted to be pH 7.4 and added with human serum such that the serum made up 10% of the medium, and used as a test medium. The above-mentioned P. falciparum were cultured in O2at a concentration of 5%, CO2 at a concentration of 5% and N2 at a concentration of 90%, at a temperature of 36.5° C. Hematocrit value (ratio of volume of erythrocytes in erythrocyte suspension) used was adjusted to be 5%. Initial infection rate of P. falciparum at the beginning of culture was adjusted to be 0.1%. A 24-well plate was used for culture and a medium was replaced everyday, and cultures were transferred at infection rate of 4%. A thin-layer smear was constructed and subjected to Giemsa staining which had been originally developed for malarial test, or Diff-Qick staining, and followed by measurement under a microscope (oil immersion, 1000×), and then infection rate of P. falciparum was calculated according to a formula mentioned below. [formula]
Cultured erythrocytes infected with P. falciparum were gathered by centrifugation and washed with a medium containing serum, then noninfected erythrocytes were added, and a culture liquid for P. falciparum at initial infection rate of 0.3% was prepared. Hematocrit value in this case was adjusted to be 3%. The compound according to the present invention used for a test and represented by the formula (II) and […] of positive control drug (quinine, artemisinin, artesunate, mefloquine) were dissolved into sterilized water, N,N-dimethylformamide (DMF) or dimethylsulfoxide (DMSO), and a sample solution at prescribed concentration was prepared. 5 to 10 μl of the sample solution was added to each well of a 24-well plate. The sample solution was duplicated or triplicated. For control, sterilized water, DMF or DMSO was added by 10 μl per well. Next, the above-mentioned culture liquid for P. falciparum prepared to be at initial infection rate of 0.3% was added by 990 to 995 μl each, and uniformly suspended in media by pipetting gently. After cultured for 72 hours in a CO2—O2—N2 (5%, 5%, 90%) incubator, a thin-layer smear was constructed for each well of the culture plate, Giemsa staining or Diff-Qick staining was conducted, followed by measurement under a microscope (oil immersion, 1000×), and then infection rates of P. falciparum in a group supplemented with a test liquid and in controls were calculated. The growth inhibition rate was calculated according to a formula mentioned below based on the infection rate of P. falciparum as calculated above, and 50% growth inhibitory concentration (EC50) was calculated. [formula] […]
a: initial infection rate b: infection rate of a sample solution after 72 hours c: infection rate of a control after 72 hours
Antimalarial activity of a sample was evaluated based on EC50 and IC50 values of the sample of P. falciparum and mouse FM3A cells. Chemotherapeutic coefficient used as an index of selective toxicity against P falciparum was calculated by a formula mentioned below and drug efficacy was assessed. [formula]

[3] = F28-7 strain of mouse breast cancer-derived FM3A cells, cultured for 48 hours, cell count
[4] = Erythrocyte, P. falciparum in human erythrocytes, cultured for 72 hours, infection rate by smear staining, read-out: 50% growth inhibitory concentration EC50

EC50 [2, 4] | EC50 ([2]; read-out: inhibits the growth of drug-resistant P. falciparum at a mol concentration of) | Compound | IC50 [1, 3] | Chemotherapeutic coefficient IC50/EC50 [2] | growth ([1]; mouse FM3A cells, printed below the IC50 cell 2.4 × 10^−5 M) | selective toxicity against P. falciparum compared with that against mouse FA3A cells ([2]; P. falciparum versus mouse FA3A cells) | IC50 ([1]; Mus musculus, FM3A, 48 h) | EC50 ([2]; Erythrocyte, 72 h, read-out: 50% growth inhibitory concentration EC50)
7.9 nM | – | C[C@@H]1CC[C@H]2[C@@H](C)C(=O)O[C@@H]3O[C@@]4(C)CC[C@@H]1[C@]32OO4 [Artemisinin, artemisinin] | 10 µM | 1,300 | – | – | – | –
32 nM | – | OC(c1cc(C(F)(F)F)nc2c(C(F)(F)F)cccc12)C1CCCCN1 (stereo not drawn) [Mefloquine, mefloquine] | 2.9 µM | 90 | – | – | – | –
39 nM | 39 nM | COC(=O)C(C)C1CCC(=O)C2CCC3(C)OOC21C(O)O3 (stereo not drawn) [Compound of the present invention, 12-hidroxy-2-(1-methoxycarbonylethyl)-5-oxo-10,11,13-trioxatricyclo[7.2.0.0^1,6]tridecane] | ≥ 24 µM | >1,000 | (78% growth) | more than 1,000 times | – | –
– | – | C[C@H]1[C@H](OC(=O)CCC(=O)O)O[C@@H]2O[C@@]3(C)CC[C@H]4[C@H](C)CC[C@@H]1[C@@]24OO3 [Artesunate, artesunate] | – | 180 | – | – | 3 µM | 17 nM

Compound | EC50 [2, 4] | EC50 ([2]; read-out: inhibits the growth of drug-resistant P. falciparum at a mol concentration of) | IC50 [1, 3] | Chemotherapeutic coefficient IC50/EC50 [2] | growth ([1]; mouse FM3A cells, printed below the IC50 cell 2.4 × 10^−5 M) | selective toxicity against P. falciparum compared with that against mouse FA3A cells ([2]; P. falciparum versus mouse FA3A cells) | IC50 ([1]; Mus musculus, FM3A, 48 h) | EC50 ([2]; Erythrocyte, 72 h, read-out: 50% growth inhibitory concentration EC50)
C=C[C@H]1C[N@@]2CC[C@H]1C[C@H]2[C@H](O)c1ccnc2ccc(OC)cc12 [Quinine, quinine] | 110 nM | – | 100 µM | 910 | – | – | – | –
